Laboratory results published in PubChem BioAssay AID2060898 (Molecular Pharmacology Branch, DTP, NCI, 2025).
Blank lines part the entries; values can stand above or below the compound they belong to.

System: 616215-338-R-J1-PDC complex spheroid viability
Assay: Anticancer human tumor 616215-338-R-J1-PDC patient-derived colon adenocarcinoma cell line growth inhibition [RAS]
Conditions: for IC50: curve of first compound; for viability, T/C: stronger effect = lower value
Text: RAS pathway inhibitors in Combinations in Complex Spheroids
A high-throughput screen of multi-cell type tumor spheroids was designed to identify active combinations of RAS pathway inhibitors and targeted small molecules. Complex spheroids include a stromal component modeled by human endothelial cells (HUVEC) and fibroblasts modeled by human mesenchymal stem cells (MSCs). The concentration ranges selected for each drug and investigational agent were based upon clinically achievable concentrations if the clinical Cmax of the agent was known.
Compounds. The drugs and investigational agents: abemaciclib (NSC768073), cobimetinib (NSC768068), divarasib (GDC6063, NSC841802), docetaxel (NSC628503), GDC-1971 (RLY-1971, NSC841576), gemcitabine (NSC613327), inavolisib (NSC800729), ipatasertib (NSC767898), KB-0742 (NSC834161), MRTX-1133 (NSC836407), osimertinib (NSC779217), RMC-4630 (NSC839698), RMC-6236 (NSC851965), RMC-6291 (NSC852671), Ro-3306 (NSC812927), sapanisertib (NSC764658), SN-38 (NSC673596), staurosporine (NSC755774), SY5609 (NSC837396), and tovorafenib (DAY101, NSC766906), were obtained from the National Cancer Institute (NCI) Developmental Therapeutics Program Chemical Repository. The FDA-approved anticancer drug set is available from the NCI Developmental Therapeutics Program. […] The stock solutions were prepared in dimethyl sulfoxide (DMSO, Sigma-Aldrich, St. Louis, MO, cat. D2650) at 800-fold the tested concentration and stored at -70 degrees C prior to their use. All drugs and investigational agents were tested over a range starting from a high concentration at or near the clinical Cmax and decreasing in half-log increments. If the clinical Cmax for an agent had not been determined, the highest concentration tested was 10 microM.
Cell Culture. All cells were maintained in an incubator at 37 degrees C and 5% CO2 with 95% humidity. The PDC lines were cultured according to standard operating procedures established by the NCI PDMR. All PDCs were thawed and cultured in Matrigel-coated flasks prepared with a working solution of 1X Ham's F-12 nutrient mix, without supplementation (Invitrogen, Waltham, MA, cat. 11765054), 100 U/mL penicillin-streptomycin (Invitrogen, cat. 15140122), and 2.5% Matrigel (Corning Inc., Corning, NY, cat. 354248) for the first three passages. The 362531-283-R-J2-PDC and 782815-120-R-J1-PDC lines were cultured in 6C/Colon 1B media, which includes advanced DMEM/F-12 (Thermo Fisher Scientific, cat. 12634028), 10 mM HEPES (Thermo Fisher Scientific, cat. 15630080), 1X GlutaMAX supplement (Thermo Fisher Scientific, cat. 35050061), 0.1 mg/mL primocin (InvivoGen, San Diego, CA, cat. ant-pm-2), 10% defined fetal bovine serum, heat inactivated (HyClone Laboratories Inc., Logan, UT, cat. SH30070.03HI), 50% L-WRN conditioned media (ATCC, cat. CRL-3276), 1.25 mM N-Acetyl-L-cysteine (Sigma-Aldrich, cat. A9165), 10 mM nicotinamide (Sigma-Aldrich, cat. N0636), 1X B-27 supplement (Thermo Fisher Scientific, cat. 17504044), 1X N-2 supplement (Thermo Fisher Scientific, cat. 17502048), 50 ng/mL human EGF (Thermo Fisher Scientific, cat. PHG0311), and 10 microM Y-27632 dihydrochloride (Tocris Bioscience, cat. 1254). The K12877-001-R-J1-PDC line was cultured in 6I media, which includes all 6C/Colon 1B media plus 10 ng/mL human FGF-10 (PeproTech, cat. 100-26), 1 ng/mL human FGF-2 (PeproTech, cat. 100-18B), 1 µM prostaglandin E2 (Tocris Bioscience, cat. 2296), […] hydrocortisone (Sigma-Aldrich, cat. H4001), and […] bovine insulin (Sigma-Aldrich, cat. I6634). The K86415-001-R-J1-PDC line was cultured in 6D media, which includes all 6C/Colon 1B media components minus the L-WRN conditioned media. The 485176-168-R4-J1-PDC was cultured in PANC media, which includes all 6C/Colon 1B media plus 100 ng/mL human FGF-10 (PeproTech, cat. 100-26), 500 nM SB-431542 (Selleckchem, cat. S1067), and 10 nM gastrin (Tocris Bioscience, cat. 3006). […]

[1] = second compound 0.0316 µM, first compound 0.0316 µM
[2] = second compound 0.0316 µM, first compound 0.1 µM
[3] = second compound 0.0316 µM, first compound 0.316 µM
[4] = second compound 0.0316 µM, first compound 1 µM
[5] = second compound 0.0316 µM, first compound 3.16 µM
[6] = second compound 0.0316 µM, first compound 10 µM
[7] = second compound 0.1 µM, first compound 0.0316 µM
[8] = second compound 0.1 µM, first compound 0.1 µM
[9] = second compound 0.1 µM, first compound 0.316 µM
[10] = second compound 0.1 µM, first compound 1 µM
[11] = second compound 0.1 µM, first compound 3.16 µM
[12] = second compound 0.1 µM, first compound 10 µM
[13] = second compound 0.316 µM, first compound 0.0316 µM
[14] = second compound 0.316 µM, first compound 0.1 µM
[15] = second compound 0.316 µM, first compound 0.316 µM
[16] = second compound 0.316 µM, first compound 1 µM
[17] = second compound 0.316 µM, first compound 3.16 µM
[18] = second compound 0.316 µM, first compound 10 µM
[19] = second compound 1 µM, first compound 0.0316 µM
[20] = second compound 1 µM, first compound 0.1 µM
[21] = second compound 1 µM, first compound 0.316 µM
[22] = second compound 1 µM, first compound 1 µM
[23] = second compound 1 µM, first compound 3.16 µM
[24] = second compound 1 µM, first compound 10 µM
[25] = second compound 3.16 µM, first compound 0.0316 µM
[26] = second compound 3.16 µM, first compound 0.1 µM
[27] = second compound 3.16 µM, first compound 0.316 µM
[28] = second compound 3.16 µM, first compound 1 µM
[29] = second compound 3.16 µM, first compound 3.16 µM
[30] = second compound 3.16 µM, first compound 10 µM
[31] = second compound 10 µM, first compound 0.0316 µM
[32] = second compound 10 µM, first compound 0.1 µM
[33] = second compound 10 µM, first compound 0.316 µM
[34] = second compound 10 µM, first compound 1 µM
[35] = second compound 10 µM, first compound 3.16 µM
[36] = second compound 10 µM, first compound 10 µM
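Also: spheroids exposed to agents for seven days before viability readout.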
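For viability, T/C in this document: 100% = DMSO vehicle control viability.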

IC50 (second compound 0.0316 µM): 1070 nM | IC50 (second compound 0.1 µM): 924 nM | IC50 (second compound 0.316 µM): 833 nM | IC50 (second compound 1 µM): 255 nM | IC50 (second compound 3.16 µM): 132 nM | IC50 (second compound 10 µM): 44 nM
Structure (SMILES): CC1(O)CCCC1n1c(=O)c(C(F)F)cc2cnc(NC3CCN(S(C)(=O)=O)CC3)nc21 (stereo unspecified) + C#Cc1c(F)ccc2cc(O)cc(-c3ncc4c(N5CC6CCC(C5)N6)nc(OCC56CCCN5CC(F)C6)nc4c3F)c12
viability, T/C [1]: 110% | viability, T/C [2]: 114% | viability, T/C [3]: 53.5% | viability, T/C [4]: 49.1% | viability, T/C [5]: 45.4% | viability, T/C [6]: 1.06% | viability, T/C [7]: 107% | viability, T/C [8]: 118% | viability, T/C [9]: 50.2% | viability, T/C [10]: 46.8% | viability, T/C [11]: 39.4% | viability, T/C [12]: 0.75% | viability, T/C [13]: 117% | viability, T/C [14]: 112% | viability, T/C [15]: 54.5% | viability, T/C [16]: 44% | viability, T/C [17]: 37.9% | viability, T/C [18]: 2.34% | viability, T/C [19]: 111% | viability, T/C [20]: 94.2% | viability, T/C [21]: 38.8% | viability, T/C [22]: 45.9% | viability, T/C [23]: 50.5% | viability, T/C [24]: 0.81% | viability, T/C [25]: 90.4% | viability, T/C [26]: 49.9% | viability, T/C [27]: 29.8% | viability, T/C [28]: 35.8% | viability, T/C [29]: 31.4% | viability, T/C [30]: 2.44% | viability, T/C [31]: 59.5% | viability, T/C [32]: 23.7% | viability, T/C [33]: 26.1% | viability, T/C [34]: 22.2% | viability, T/C [35]: 21.8% | viability, T/C [36]: 1.18%

IC50 (second compound 0.0316 µM): > 1000 nM | IC50 (second compound 0.1 µM): > 1000 nM | IC50 (second compound 0.316 µM): 874 nM | IC50 (second compound 1 µM): 693 nM | IC50 (second compound 3.16 µM): 175 nM | IC50 (second compound 10 µM): 30.9 nM
Structure (SMILES): CCN1CCN(Cc2ccc(Nc3ncc(F)c(-c4cc(F)c5nc(C)n(C(C)C)c5c4)n3)nc2)CC1 + C#Cc1c(F)ccc2cc(O)cc(-c3ncc4c(N5CC6CCC(C5)N6)nc(OCC56CCCN5CC(F)C6)nc4c3F)c12
viability, T/C (second compound 0.0316 µM, first compound 0.00316 µM): 96.4% | viability, T/C (second compound 0.0316 µM, first compound 0.01 µM): 117% | viability, T/C [1]: 120% | viability, T/C [2]: 108% | viability, T/C [3]: 131% | viability, T/C [4]: 53.2% | viability, T/C (second compound 0.1 µM, first compound 0.00316 µM): 97.9% | viability, T/C (second compound 0.1 µM, first compound 0.01 µM): 110% | viability, T/C [7]: 113% | viability, T/C [8]: 124% | viability, T/C [9]: 129% | viability, T/C [10]: 50.8% | viability, T/C (second compound 0.316 µM, first compound 0.00316 µM): 105% | viability, T/C (second compound 0.316 µM, first compound 0.01 µM): 110% | viability, T/C [13]: 121% | viability, T/C [14]: 120% | viability, T/C [15]: 112% | viability, T/C [16]: 41.7% | viability, T/C (second compound 1 µM, first compound 0.00316 µM): 120% | viability, T/C (second compound 1 µM, first compound 0.01 µM): 118% | viability, T/C [19]: 130% | viability, T/C [20]: 88% | viability, T/C [21]: 74.2% | viability, T/C [22]: 39.7% | viability, T/C (second compound 3.16 µM, first compound 0.00316 µM): 90.8% | viability, T/C (second compound 3.16 µM, first compound 0.01 µM): 98.1% | viability, T/C [25]: 70% | viability, T/C [26]: 58.2% | viability, T/C [27]: 44.6% | viability, T/C [28]: 30.9% | viability, T/C (second compound 10 µM, first compound 0.00316 µM): 76.1% | viability, T/C (second compound 10 µM, first compound 0.01 µM): 58.5% | viability, T/C [31]: 51.9% | viability, T/C [32]: 35.5% | viability, T/C [33]: 39.3% | viability, T/C [34]: 23.9%

IC50 (second compound 0.0316 µM): > 10000 nM | IC50 (second compound 0.1 µM): > 10000 nM | IC50 (second compound 0.316 µM): 9710 nM | IC50 (second compound 1 µM): 5990 nM | IC50 (second compound 3.16 µM): 3610 nM | IC50 (second compound 10 µM): 758 nM
Structure (SMILES): C[C@@H](NC(=O)c1ncnc(N)c1Cl)c1ncc(C(=O)Nc2cc(C(F)(F)F)c(Cl)cn2)s1 + C#Cc1c(F)ccc2cc(O)cc(-c3ncc4c(N5CC6CCC(C5)N6)nc(OCC56CCCN5CC(F)C6)nc4c3F)c12
viability, T/C [1]: 120% | viability, T/C [2]: 109% | viability, T/C [3]: 109% | viability, T/C [4]: 109% | viability, T/C [5]: 86.8% | viability, T/C [6]: 55.2% | viability, T/C [7]: 104% | viability, T/C [8]: 111% | viability, T/C [9]: 108% | viability, T/C [10]: 109% | viability, T/C [11]: 90.8% | viability, T/C [12]: 52.2% | viability, T/C [13]: 111% | viability, T/C [14]: 113% | viability, T/C [15]: 121% | viability, T/C [16]: 117% | viability, T/C [17]: 87.9% | viability, T/C [18]: 49% | viability, T/C [19]: 109% | viability, T/C [20]: 112% | viability, T/C [21]: 108% | viability, T/C [22]: 91.5% | viability, T/C [23]: 68.3% | viability, T/C [24]: 35.8% | viability, T/C [25]: 99.3% | viability, T/C [26]: 111% | viability, T/C [27]: 72.3% | viability, T/C [28]: 82.2% | viability, T/C [29]: 52.2% | viability, T/C [30]: 24.3% | viability, T/C [31]: 84.3% | viability, T/C [32]: 69.7% | viability, T/C [33]: 67.2% | viability, T/C [34]: 46.4% | viability, T/C [35]: 24.8% | viability, T/C [36]: 18.7%
